What all share (assay type): functional
One test relates to THP-1. The test is described as follows: Cytotoxicity against Homo sapiens (human) THP1 cells assessed as growth inhibition at 2 x 10^-5 mole after 48 hr by SRB assay.
The subject of the next test is COLO 205. As to the kind of experiment: Cytotoxicity against Homo sapiens (human) COLO205 cells assessed as growth inhibition at 2 x 10^-5 mole after 48 hr by SRB assay.
A further test deals with MCF7. The test is described as follows: Cytotoxicity against Homo sapiens (human) MCF-7 cells assessed as growth inhibition at 1 x 10^-6 mole after 48 hr by SRB assay.
In another test the test system is SF-295. The test is described as follows: Cytotoxicity against Homo sapiens (human) SF295 cells assessed as growth inhibition at 1 x 10^-6 mole after 48 hr by SRB assay.

On to `O=c1[nH]cc(F)c(=O)[nH]1` [FLUOROURACIL], for which the “growth inhibition (GI)” value worked out at 69% in the test with THP-1 and 74% in the test on COLO 205.

Regarding `COc1cccc2c1C(=O)c1c(O)c3c(c(O)c1C2=O)C[C@@](O)(C(=O)CO)C[C@@H]3O[C@H]1C[C@H](N)[C@H](O)[C@H](C)O1.Cl` [DOXORUBICIN HYDROCHLORIDE], the “growth inhibition (GI)” value with MCF7 turned out to be 77%; in the test with SF-295, 87%.

(Values after ChEMBL document CHEMBL3045485, “Synthesis of combretastatin analogs: evaluation of in vitro anticancer activity and molecular docking studies” (Med Chem Res, 2012).)
